# Source: article PMC6754136 (PLoS ONE, 2019)
# “Also recorded” adds a separate entry of the source. Like-named read-outs stand apart in the source and are kept apart here.
# Assays:
# [1] = target: purified recombinant human PDE5 (Homo sapiens, UniProt O76074); test: in vitro PDE5 inhibition assay measuring GMP production from cGMP (HPLC-UV-MS); type: biochemical; conditions: for Fold improved potency (fold change in IC50 compared to icariin): relative to icariin; for fold increase in potency compared to the corresponding unglycosylated analog: 3 vs 6, 5 vs 8
# Method: STRENDA guidelines were considered in the description of the following enzyme activity assays. PDE5 inhibition and kinetics assays were carried out according to the method of Kincaid and Manganiello [31] and Dell’Agli et al. 1 nM recombinant human PDE5 (catalytic domain consisting of amino acids 537–875, Abcam, ab125581) was pre-incubated with PDE5 inhibitors (synthesized in-house as described above or purchased from Selleck Chemicals) in 40 mM tris-hydrochloric acid, pH 7.8, containing 10 mM MgCl2. […]. PDE5 inhibitors were added to each reaction using a Hewlett-Packard D300 Digital Dispenser (Tecan). Maximum DMSO concentration was 0.1% of the final reaction volume for all samples. After incubation at 25 °C for 5 minutes to allow interaction between PDE5 and drugs, the reaction was started with the addition of 0.3 μM cGMP (Enzo Life Sciences, Inc.) and incubated at 25 °C for 15 minutes. The final reaction volume was 100 μL. Reactions were stopped with the addition of 100 μL of 0.1 M HCl and neutralized by adding 0.1 M NaOH until the pH was 7. […] The amount of GMP produced was measured by HPLC-UV-MS as described in the general procedures. Reaction mixture components were separated with a ramp gradient of solvent A and B run at a flow rate of 0.5 mL/min as follows: 0–4 minutes 0% B, 4–7 minutes 0–95% B, 7–8 minutes 95% B, 8–11.1 minutes 0% B. GMP was measured using selected reaction monitoring in positive mode for a centroid center mass of 152.
# A calibration curve using known concentrations of GMP was generated using the HPLC-UV-MS method described above to quantify the absolute amount of GMP in each reaction (S13 Fig). The linear range was from 5.9 nM to 3 μM. The limit of detection (LOD), defined as the lowest concentration producing a detectable peak above background, was 0.1 nM. The lower limit of quantification (LLOQ), defined as the lowest concentration used to generate a standard curve with r^2 > 0.95, was 5.9 nM. The upper limit of quantification (ULOQ), defined as the highest concentration used to generate a standard curve with r^2 > 0.95, was 3 μM. A GMP calibration curve was generated with each individual run of the HPLC-UV-MS.
# To measure the IC50 as a result of treatment with each icariin analog, the in vitro inhibition enzyme assay as described above was performed, and GMP levels were normalized to no-drug controls and multiplied by 100 to obtain the percent PDE5 activity. IC50 mean ± SEM values were determined by nonlinear-regression fitting of the percent PDE5 activity data using the [inhibitor] vs response–variable slope (four parameters) equation in Prism (version 7.0a and version 8). Top value was constrained to 100, all other parameters were unconstrained. To obtain the dose-response curves for visual confirmation of the best-fit line, we executed a nonlinear regression fitting using the log(inhibitor) vs. response—variable slope (four parameters) equation in Prism. […] AICc analysis (built into Prism) was used to confirm the best-fitting inhibition model. […] Inhibition models were also compared via visual inspection of the fit of the calculated curves on the Michaelis-Menten plots.
# [2] = mitochondrial viability assay with resazurin; type: cell-based, human; conditions: human, 0.01–10 μM; for viability at 3 days: marked reduction in at least one cell line; for viability at 3 days, 10 μM: four cell lines, even at the highest concentration tested (10 μM)
# Method: The human cell lines SH-SY5Y (SY5Y, ATCC CRL-2266), SK-MEL-5 (SKMEL-5, ATCC HTB-70), and NCI-H187 (H187, ATCC CRL-5804) were cultured in RPMI medium supplemented with 10% FBS and no antibiotics. These three cell lines were generously provided by the laboratory of Susan Lindquist via Luke Whitesell (currently at the University of Toronto, Toronto, ON, Canada). BJ-hTERT (described in [27], generously provided by Robert Weinberg, Whitehead Institute, Cambridge MA, USA) was cultured in 4:1 DMEM:M199 medium supplemented with 15% FBS and no antibiotics. All cell lines were grown and assayed at 37 °C, 5% CO2. All cell lines were screened for mycoplasma contamination by PCR (Mycoscope Detection Kit, Fisher Scientific) before use in assays.
# For viability assays, cells were plated in black, clear bottom 384-well tissue culture-treated plates (Corning) and incubated overnight in the media described above but supplemented with 50 U/mL penicillin-streptomycin antibiotic (Life Technologies). Then, DMSO (no drug controls) and PDE5 inhibitors (0.01–10 μM; synthesized as described above or purchased from Selleck Chemicals) were added using a Hewlett-Packard D300 Digital Dispenser (Tecan) and incubated for 3 days. Maximum DMSO concentration was normalized to 0.1% of the total well volume for all wells. Resazurin (R & D Systems) was diluted 1:20 into each well and incubated for up to 4 hours. Fluorescence was read in a Tecan plate reader (excitation = 570 nm, emission = 585 nm). Wells treated with PDE5 inhibitors were normalized against control wells treated with DMSO to measure percent mitochondrial viability (100 = no effect on mitochondrial viability).
# bovine trypsin = target: T1, bovine trypsin (Bos taurus, UniProt P00760); test: PAINS assay: non-specific inhibition of trypsin; type: biochemical; conditions: 1x and 10x the PDE5 IC50 (3 and 7 also 50x, 250x); luteolin 50, 100, 250 μM
# T1 construct: purchased Sigma-Aldrich T1426
# T1 sequence (P00760 24-246): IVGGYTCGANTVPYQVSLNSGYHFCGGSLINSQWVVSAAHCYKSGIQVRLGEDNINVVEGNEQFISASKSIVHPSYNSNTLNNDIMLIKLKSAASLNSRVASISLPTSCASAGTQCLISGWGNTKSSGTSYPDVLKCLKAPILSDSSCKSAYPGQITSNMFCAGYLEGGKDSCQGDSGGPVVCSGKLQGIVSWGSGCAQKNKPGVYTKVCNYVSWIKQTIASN
# Method: In assay buffer (50 mM Tris-HCl, 20 mM CaCl2, pH 8.19 with or without 0.5% igepal), 0.002 mg freshly made trypsin is incubated with drugs for 5 minutes at 25 °C. 1 mM of substrate (Nα-benzoyl-L-arginine 4-nitroanilide hydrochloride, Sigma-Aldrich, B3133) is added to start the reaction. Final reaction volume is 100 μl. Product formation is monitored by increasing absorbance at 410 nm at 25 °C for 30 minutes in kinetic mode using a SpectraMax M5 plate reader (Molecular Devices). All values were measured in duplicate.
# human PDE5 = conditions: PDE5, competitive inhibitors; cited from earlier work
# PDE6 isoforms = system: PDE6 isoforms; set-up: method as in PMID 16780568, PMID 16123402; conditions: cited from earlier work
# recombinant human PDE5 = recombinant human PDE5 (Homo sapiens, UniProt O76074); test: in vitro PDE5 kinetics assay (nonlinear regression, AICc model comparison); type: biochemical
# Method: guidelines were considered in the description of the following enzyme activity assays. […] For kinetics assays, 0.015, 0.05, and 0.2 μM of compounds 3 and 7 were used. […] Maximum DMSO concentration was 0.1% of the final reaction volume for all samples. […] The final reaction volume was 100 μL. Reactions were stopped with the addition of 100 μL of 0.1 M HCl and neutralized by adding 0.1 M NaOH until the pH was 7. […] Reaction mixture components were separated with a ramp gradient of solvent A and B run at a flow rate of 0.5 mL/min as follows: 0-4 minutes 0% B, 4-7 minutes 0-95% B, 7-8 minutes 95% B, 8-11.1 minutes 0% B. GMP was measured using selected reaction monitoring in positive mode for a centroid center mass of 152. […] Top value was constrained to 100, all other parameters were unconstrained. To obtain the dose-response curves for visual confirmation of the best-fit line, we executed a nonlinear regression fitting using the log(inhibitor) vs. response-variable slope (four parameters) equation in Prism. […] AICc analysis (built into Prism) was used to confirm the best-fitting inhibition model. […] Inhibition models were also compared via visual inspection of the fit of the calculated curves on the Michaelis-Menten plots.
# [3] = target: T2, partially purified recombinant human PDE6C (Homo sapiens, UniProt P51160); test: PDE6C inhibition assay (GMP production); type: biochemical
# T2 construct: partially purified recombinant full-length human PDE6C; purchased SB Drug Discovery; host or cells: insect cells
# Method: PDE6C inhibition was measured using the same method as described for PDE5 with modifications. […] The final reaction volume was 50 μL. […] Reactions were stopped as described above for PDE5 enzyme assays, and GMP was quantified as described above. […] The amount of GMP produced in these samples was subtracted from all samples before normalizing against untreated controls.
# BJ-hTERT cells = test: cellular GMP levels after inhibitor treatment; type: cell-based, human; conditions: 20 μM inhibitor, 1 hour; mean ± SEM; p<0.001
# Method: For assaying PDE5 inhibitor effects on GMP levels in a cell line, BJ-hTERT cells were plated in 6-well plates (Corning) in the media described above. When cells were 80% confluent, fresh, pre-warmed media with DMSO (untreated controls) or 20 μM sildenafil, 3, or 7 was added and incubated for 1 hour. Maximum DMSO concentration in all samples was 0.2% of the total well volume. Cells were washed once with cold 0.9% NaCl. 800 μL of 80:20 methanol:water spiked with 500 nM isotopically labeled amino acids as internal standards was added while cells were on dry ice. Cells were detached with a cell scraper. Extracts were vortexed for 10 minutes and centrifuged at maximum speed at 4 °C to remove debris. Extracts were dried down in a vacuum dryer and stored at -80 °C. An additional sample was reserved for visual inspection of cell health by confocal light microscopy and for cell counting with a hemocytometer. Three independent assays were conducted in total, with 1–2 replicates per assay. To analyze GMP levels, samples were reconstituted in 50 μL LC-MS grade water and analyzed by HPLC-UV-MS as described in the general procedures and for enzyme inhibition and kinetics assays. The amino acid standards were analyzed in full scan positive mode with mass windows m/z 50–800. GMP peak areas were normalized to the peak area of the internal standard ^13C4, ^15N-threonine or ^13C6, ^15N3-histidine to account for variations in extraction or resuspension volume. The peak areas were then normalized to the average GMP peak area in undrugged controls and multiplied by 100 to obtain the percent GMP.
# [4] = 1 nM PDE5 catalytic domain, 0.3 μM cGMP, 25 °C, 15 min, mean of at least three replicates ± SEM, read-out: IC50
# T2 sequence (P51160 whole entry): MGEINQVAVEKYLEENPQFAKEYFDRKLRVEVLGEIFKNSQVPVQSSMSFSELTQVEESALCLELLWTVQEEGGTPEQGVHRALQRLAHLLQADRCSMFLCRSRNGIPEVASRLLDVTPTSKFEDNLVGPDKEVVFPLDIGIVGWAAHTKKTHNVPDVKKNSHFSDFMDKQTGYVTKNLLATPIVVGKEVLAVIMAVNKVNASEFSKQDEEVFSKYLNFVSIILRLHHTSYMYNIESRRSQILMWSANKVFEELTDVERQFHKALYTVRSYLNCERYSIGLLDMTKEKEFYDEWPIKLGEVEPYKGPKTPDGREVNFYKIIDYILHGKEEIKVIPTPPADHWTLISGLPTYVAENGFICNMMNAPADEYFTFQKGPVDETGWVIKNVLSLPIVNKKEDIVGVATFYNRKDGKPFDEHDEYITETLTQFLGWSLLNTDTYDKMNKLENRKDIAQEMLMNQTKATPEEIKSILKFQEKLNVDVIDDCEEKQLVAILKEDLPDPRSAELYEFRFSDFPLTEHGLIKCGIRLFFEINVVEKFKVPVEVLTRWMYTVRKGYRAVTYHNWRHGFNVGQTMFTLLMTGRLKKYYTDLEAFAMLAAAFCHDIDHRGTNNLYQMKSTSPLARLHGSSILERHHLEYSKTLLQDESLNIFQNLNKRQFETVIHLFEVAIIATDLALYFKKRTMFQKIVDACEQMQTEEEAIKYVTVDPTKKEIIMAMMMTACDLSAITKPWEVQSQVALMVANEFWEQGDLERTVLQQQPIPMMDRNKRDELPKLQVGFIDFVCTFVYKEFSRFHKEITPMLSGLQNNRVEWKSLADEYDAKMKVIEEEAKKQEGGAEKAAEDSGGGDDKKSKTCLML
compound,measurement,setting,value
"COc1ccc(-c2oc3c(CC=C(C)C)c(OC4OC(CO)C(O)C(O)C4O)cc(O)c3c(=O)c2OCCCO)cc1 (stereo not drawn) [Compound 4, 3-O-(3-Hydroxypropyl)-Icariside I]",IC50,[1]; [4],800 ± 500 nM
same,fold decrease in potency compared to the corresponding unglycosylated compound 7,[1]; 4 vs 7,6 fold
same,Fold improved potency (fold change in IC50 compared to icariin),[1],8 fold
same,viability at 3 days,[2],≤ 70%
"COc1ccc(-c2oc3c(CC=C(C)C)c(OC4OC(CO)C(O)C(O)C4O)cc(O)c3c(=O)c2OCC(C)O)cc1 (stereo not drawn) [Compound 5, 3-O-(2-Hydroxypropyl)-Icariside I]",fold increase in potency compared to the corresponding unglycosylated analog,[1],3 fold
same,Fold improved potency (fold change in IC50 compared to icariin),[1],12 fold
same,"viability at 3 days, 10 μM",[2],> 70%
"O=c1cc(-c2ccc(O)c(O)c2)oc2cc(O)cc(O)c12 [luteolin, reference compound]",inhibition of trypsin activity,bovine trypsin,statistically significant inhibition of trypsin activity (p<0.001)
"COc1ccc(-c2oc3c(CC=C(C)C)c(O[C@@H]4O[C@H](CO)[C@@H](O)[C@H](O)[C@H]4O)cc(O)c3c(=O)c2O)cc1 [Compound 2, Icariside I]",IC50,[1]; [4],2100 ± 800 nM
same,Fold improved potency (fold change in IC50 compared to icariin),[1],3 fold
same,viability at 3 days,[2],≤ 70%
CCCc1nc(C)c2c(=O)[nH]c(-c3cc(S(=O)(=O)N4CCN(CC)CC4)ccc3OCC)nn12 [vardenafil],IC50,human PDE5,[…]
same,inhibition of PDE6 isoforms,PDE6 isoforms,show inhibition of PDE6 isoforms
"COc1ccc(-c2oc3c(CC=C(C)C)c(OC4OC(CO)C(O)C(O)C4O)cc(O)c3c(=O)c2OCCO)cc1 (stereo not drawn) [Compound 3, 3-O-(2-Hydroxyethyl)-Icariside I]",Preferred model,recombinant human PDE5; AICc comparison of competitive vs noncompetitive inhibition,Competitive inhibition
same,Preferred model,recombinant human PDE5; AICc comparison of competitive vs uncompetitive inhibition,Competitive inhibition
same,probability that the competitive inhibition model is correct,"recombinant human PDE5; AICc, compared to a noncompetitive or uncompetitive model",> 99%
same,Probability it is correct (competitive inhibition),"recombinant human PDE5; AICc, competitive vs noncompetitive inhibition",99.97%
same,Probability it is correct (competitive inhibition),"recombinant human PDE5; AICc, competitive vs uncompetitive inhibition",>99.99%
same,mode of inhibition,recombinant human PDE5; Lineweaver-Burk plot and AICc analysis,competitive inhibitor; also recorded: inhibits PDE5 competitively
same,fold increase in potency compared to the corresponding unglycosylated analog,[1],5 fold
same,"viability at 3 days, 10 μM",[2],> 70%
same,specificity for PDE5 over PDE6C,[3],shows specificity for PDE5 over PDE6C
same,"PDE6C inhibition, statistical significance","[3]; at 50x the PDE5 IC50, vs theoretical uninhibited mean of 100%",do not show any statistically significant PDE6C inhibition
same,"cellular GMP concentration, % of the GMP concentration in untreated control cells",BJ-hTERT cells,9 ± 0.6%
"COc1ccc(-c2oc3c(CC=C(C)C)c(O)cc(O)c3c(=O)c2OCC(C)O)cc1 (stereo not drawn) [Compound 8, 3-O-(2-Hydroxypropyl)-Icaritin]",IC50,[1]; [4],1500 ± 600 nM
same,Fold improved potency (fold change in IC50 compared to icariin),[1],4 fold
"COc1ccc(-c2oc3c(CC=C(C)C)c(O)cc(O)c3c(=O)c2O)cc1 [Compound 9, Icaritin]",inhibition of trypsin activity,bovine trypsin,statistically significant inhibition of trypsin activity (p<0.05)
same,IC50,[1],1800 ± 800 nM
same,Fold improved potency (fold change in IC50 compared to icariin),[1],3 fold
